Test results from PMC7534897 (Bioorganic & Medicinal Chemistry Letters, 2020).
Converted amounts (≈) assume the structure as drawn. Where two headings read alike, the source gives them in different places.

Key:
EV-71A = conditions: cited from earlier work
EV-A71 = conditions: read-out: EC50, EV-A71; cited from earlier work
[1] = system: Enterovirus 71 (Tainin/4643/98 strain); test: Inhibition of EV-A71 replication in Vero 76 cells; type: cell-based, Enterovirus A71; conditions: for EC50: Enterovirus A
A1 adenosine receptor = conditions: cited from earlier work
[2] = system: coxsackie virus B3, enterovirus 68 and poliovirus 1; test: organism not typed; type: cell-based; conditions: read-out: EC50 values, range over three viruses
A3 adenosine receptor = conditions: read-out: Ki, A3 adenosine receptor; binds as an agonist; cited from earlier work
[3] = system: Enterovirus 68 (US/KY/14–18953 strain); test: Inhibition of enterovirus 68 in RD cells; type: cell-based; conditions: Enterovirus D, read-out: EC50/90 values against enterovirus 68, range

For `NC(=O)c1ncn([C@@H]2O[C@H](CO)[C@@H](O)[C@H]2O)n1` [Compound 5, ribavirin], the “IC50, EV-71A viral yield in infected cells” value (EV-71A) is given as 65 µg/mL (≈ 266 µM) and the IC50 (EV-71A; read-out: IC50, EV-71A viral yield in infected cells) is given as 266 µM.

For `OC[C@H]1O[C@@H](n2cnc3c(NCc4ccccc4)ncnc32)[C@H](O)[C@@H]1O` [Compound 6, N ^6-benzyl-adenosine], the EC50 (EV-A71) is listed as 5 µM.

For `CCOC(=O)c1ccc(OCCC2CCN(c3ccc(C)nn3)CC2)cc1` [Compound 8, Pirodavir, reference compound], the EC50 ([1]; Vero 76, read-out: EC50 values of pirodavir, range (neutral red)) was 0.056 to 0.22 µg/mL and the EC50 ([1]; Vero 76, read-out: EC50 values of pirodavir, range (visual)) was 0.036 to 0.32 µg/mL.

For `NC(=O)c1ncn([C@H]2[C@H](O)[C@H](O)[C@]3(CO)C[C@H]23)n1` [Compound 9], the “Activity against EV-A71 in words” value ([1]; at 50 µM, higher concentrations not tested) was “inactive”.

In the case of `OC[C@H]1O[C@@H](n2cnc3c(NC(C4CC4)C4CC4)ncnc32)[C@H](O)[C@@H]1O` [Compound 10], the “Activity against EV-A71 in words” value [1] is reported as “inactive”.

In the case of `OC[C@H]1O[C@@H](n2cnc3c(NC(C4CCC4)C4CCC4)ncnc32)[C@H](O)[C@@H]1O` [Compound 11], the “Activity against EV-A71 in words” value [1] is listed as “inactive” and the Ki (A1 adenosine receptor; read-out: Ki, A1 receptor) is listed as under 0.01 µM.

For `OC[C@H]1O[C@@H](n2cnc3c(NC(C4CCC4)C4CCC4)nc(Cl)nc32)[C@H](O)[C@@H]1O` [Compound 12], the Ki (A1 adenosine receptor; read-out: Ki, A1 receptor) is given as under 0.01 µM.

With `OC[C@@]12C[C@@H]1[C@@H](n1cnc3c(NC(C4CC4)C4CC4)nc(Cl)nc31)[C@H](O)[C@@H]2O` [Compound 16] the “Activity against EV-A71 in words” value [1] was “Intermediate potency”.

In the case of `CC(C)[C@@H](Nc1nc(Cl)nc2c1ncn2[C@H]1[C@H](O)[C@H](O)[C@]2(CO)C[C@H]12)C1CC1` [Compound 17], the EC50 [2] is listed as 16 to 32 µM, the Ki (A3 adenosine receptor) is listed as 1.24 µM and the Ki (A1 adenosine receptor; read-out: Ki, A1 adenosine receptor, binds as an agonist) is listed as 0.103 µM.

`CSc1nc(N[C@H](C(C)C)C2CC2)c2ncn([C@H]3[C@H](O)[C@H](O)[C@]4(CO)C[C@H]34)c2n1` [Compound 20, (1R,2R,3S,4R,5S)-4-(6-((1-Cyclopropyl-2-methylpropyl)amino)-2-(methylthio)-9H-purin-9-yl)-1-(hydroxymethyl)bicyclo[3.1.0]hexane-2,3-diol] gave an EC50 ([1]; Vero 76, read-out: Visual EC50) of over 100 µM.

For `CC(C)[C@H](Nc1nc(Cl)nc2c1ncn2[C@H]1[C@H](O)[C@H](O)[C@]2(CO)C[C@H]12)C1CC1` [Compound 21], the “Activity against EV-A71 in words” value [1] was “Intermediate potency”.

`CC[C@@H](Nc1nc(SC)nc2c1ccn2[C@H]1[C@H](O)[C@H](O)[C@]2(CO)C[C@H]12)C1CC1` [Compound 26] gave an EC50 ([1]; Vero 76, read-out: Visual EC50) of 16 µM.

Work on `CC[C@H](Nc1nc(Cl)nc2c1ncn2[C@H]1[C@H](O)[C@H](O)[C@]2(CO)C[C@H]12)C1CC1` [Compound 27] yielded an EC50 ([1]; Vero 76, read-out: Visual EC50) of 16 µM.

In the case of `OC[C@@]12C[C@@H]1[C@@H](n1cnc3c(NC(C4CCC4)C4CCC4)nc(Cl)nc31)[C@H](O)[C@@H]2O` [Compound 30], the “Activity against EV-A71 in words” value [1] is reported as “prevented inhibition”.

For `O[C@@H]1[C@H](O)[C@@H]2C[C@@H]2[C@H]1n1cnc2c(NC(C3CC3)C3CC3)nc(Cl)nc21` [Compound 31], the “SI (selectivity index) at EV-A71” value ([1]; visual and neutral red methods) was at least 10 and the EC50 [3] was 8 to 16 µM.

For `O[C@@H]1[C@H](O)[C@@H]2C[C@@H]2[C@H]1n1cnc2c(NC(C3CCC3)C3CCC3)nc(Cl)nc21` [Compound 42], the EC50 ([1]; Vero 76, read-out: Visual EC50) was over 16 µM.

With `CCOC(=O)[C@@]12C[C@@H]1[C@@H](n1cnc3c(NC(C4CC4)C4CC4)nc(Cl)nc31)[C@H](O)[C@@H]2O` [Compound 44] the “Activity against EV-A71 in words” value [1] was “inactive”.

In the case of `CC(C)[C@@H](Nc1nc(Cl)nc2c1ncn2[C@H]1[C@H](O)[C@H](O)[C@]2(CF)C[C@H]12)C1CC1` [Compound 48, (1S,2R,3S,4R,5S)-4-(2-Chloro-6-((1-cyclopropyl-2-methylpropyl)amino)-9H-purin-9-yl)-1-(fluoromethyl)bicyclo[3.1.0]hexane-2,3-diol], the “Activity against EV-A71 in words” value [1] is reported as “intermediate potency”, the EC50 ([1]; Vero 76, read-out: Visual EC50) is reported as 3.6 µM and the EC50 [3] is reported as 8 to 16 µM.

In the case of `CC(C)[C@@H](Nc1nc(Cl)nc2c1ncn2[C@H]1[C@H](O)[C@H](O)[C@]2(CCl)C[C@H]12)C1CC1` [Compound 49, (1S,2R,3S,4R,5S)-4-(2-Chloro-6-((1-cyclopropyl-2-methylpropyl)amino)-9H-purin-9-yl)-1-(chloromethyl)bicyclo[3.1.0]hexane-2,3-diol], the “Activity against EV-A71 in words” value [1] is reported as “intermediate potency”.

With `CSC[C@@]12C[C@@H]1[C@@H](n1cnc3c(N[C@H](C(C)C)C4CC4)nc(Cl)nc31)[C@H](O)[C@@H]2O` [Compound 50, (1S,2R,3S,4R,5S)-4-(2-Chloro-6-((1-cyclopropyl-2-methylpropyl)amino)-9H-purin-9-yl)-1-((methylthio)methyl)bicyclo[3.1.0]hexane-2,3-diol] the “Activity against EV-A71 in words” value [1] was “reduced inhibition”.

For `CC(C)[C@@H](Nc1nc(Cl)nc2c1ncn2[C@H]1[C@H](O)[C@H](O)[C@]2(CN=[N+]=[N-])C[C@H]12)C1CC1` [Compound 51, (1R,2R,3S,4R,5S)-1-(Azidomethyl)-4-(2-chloro-6-((1-cyclopropyl-2-methylpropyl)amino)-9H-purin-9-yl)bicyclo[3.1.0]hexane-2,3-diol], the “Activity against EV-A71 in words” value [1] was “intermediate potency”.

With `CC(C)[C@@H](Nc1nc(Cl)nc2c1ncn2[C@H]1[C@H](O)[C@H](O)[C@]2(CN)C[C@H]12)C1CC1` [Compound 52, (1R,2R,3S,4R,5S)-1-(Aminomethyl)-4-(2-chloro-6-((1-cyclopropyl-2-methylpropyl)amino)-9H-purin-9-yl)bicyclo[3.1.0]hexane-2,3-diol] the “Activity against EV-A71 in words” value [1] was “reduced inhibition”.
